Entries after “also recorded” stand apart in the source; their conditions may differ.
Key:
female Fisher 344 rats [1] = assay: Cancellous bone histomorphometry of rat proximal tibial metaphysis after oral 2ME; type: in vivo; conditions: 100 mg/kg/day oral gavage 13 days, mean ± SE
Method: All studies were approved by the Institutional Animal Care and Use Committee of the Mayo Clinic, Rochester, Minn. Rats were kept in plastic cages (3 per cage) under standard conditions of a 12 hr dark and 12 hr light cycle with food (Purina Laboratory rodent diet 5001, Ralston-Purina, St. Louis, Mo.) and water ad libitum. Rooms were maintained at a temperature of 24° C.
Fluorochromes were given […] tail vein.
Bone histomorphometry Histomorphometric measurements were performed with the OsteoMeasure Analysis System (OsteoMetrics, Atlanta, Ga.), which consisted of a Pentium 1133 computer coupled to a photomicroscope and image analysis system. […] The region of interest was traced, and the line lengths and area bounded by lines were calculated automatically.
Cancellous bone measurements on stained sections The proximal tibial metaphysis was dehydrated in a series of increasing concentrations of ethanol, embedded without demineralization in a mixture of methyimethacrylate-2-hydroxyethyl and methacrylate (12.5:1) to retain the fluorochrome labels, and sectioned at a thickness of 5 μm (Reichert-Jung Model 2065 Microtome, Heidelberg Germany). Sections were stained with toluidine blue. A standard sampling site was established in the secondary spongiosa of the metaphysis, 1 mm distal to the calcein label that was deposited at the metaphyseal growth plate, its center perpendicular to the long axis of each bone and extending 2.0 mm distal to the starting point. This method adjusts for longitudinal growth such that only the portion of the secondary spongiosa present throughout the experiment was sampled. A total metaphyseal area of 2.88 mm^2 was sampled for each section.
Bone volume measurements Cancellous bone area and cancellous perimeter were determined as described by Turner, R. T. et al., 1998, supra. The following indices of trabecular architecture were calculated: 1) trabecular thickness; 2) trabecular number; and 3) trabecular separation.
Bone formation measurements and calculations Bone formation rate (%/day, tissue area referent) was calculated as the double-labeled perimeter (μn) multiplied by the mineral apposition rate (μm/day) and divided by the tissue area (mm^2); bone formation rate (perimeter referent) was calculated as the double-labeled perimeter (μm) multiplied by the mineral apposition rate (μm/day) and divided by the total bone perimeter (mm); mineral apposition rate was calculated as the mean distance between the declomycin label and the calcein label by the time interval (11 days); and double-labeled perimeter (tissue are referent) was measured as the length with declomycin and calcein labels (mm/mm^2 of cancellous tissue area).
Statistical Analvses All values are expressed as mean±standard error (SE). Significant differences between groups were determined by Fisher's Protected Least Significant Difference post hoc test for multiple group comparisons following detection of significance by 1-way ANOVA. Significance was considered at p values ≦0.05.

female Fisher 344 rats [2] = assay: Growth plate histomorphometry and longitudinal bone growth rate in rats; type: in vivo, rat; conditions: 100 mg/kg/day oral gavage 13 days
Method: Twenty-five female 3-month-old Fisher 344 rats, weighing approximately 141-160 g, were purchased from Harlan Sprague Dawley (Madison, Wis.). The rats were divided into 3 groups (8 or 9 rats/group) of a baseline group that was sacrificed on the first day of treatment, a control group that was treated with carrier (liposomes) only, and a 2ME treatment group. […] Fluorochromes were given juxta tail vein. Declomycin (20 mg/kg) was given on the first day of treatment and calcein (15 mg/kg) two days prior to sacrifice, in order to label mineralizing bone and cartilage. Twenty-four hours after the last dosage, rats were anesthetized with ketamine HCl (100 mg/kg):xylaxine HCl (10 mg/kg) and sacrificed by decapitation. […] Tibiae were quickly excised and fixed for histomorphometry in a solution of 70% ethanol.
Growth Plate Measurements The longitudinal bone growth rate was measured at 5 equally spaced sites across the growth plate as the distance between the declomycin and calcein labels that had been deposited into the mineralizing front of the hypertrophic zone of the growth plate divided by the 11 day interval between application of the sequential fluorochromes.
Growth plate thickness was measured as the mean distance between the zone of vascular invasion and the resting zone. Thicknesses of the proliferative zone and hypertrophic zone were also measured.

[3] = test system: Human fetal osteoblasts (hFOB) cells; assay: Cell survival, viable cell count with trypan blue; type: cell-based; conditions: 2 μM, 72 h
Method: (§1) MG63 and TE85 human osteosarcoma cells, and ROS 17/2.8 rat osteosarcoma cells were grown in DMEM/F12 phenol-red free medium containing 10% charcoal-stripped fetal bovine serum (FBS) and supplemented with 100 units/ml penicillin, 100 μg/ml streptomycin. Cell were incubated at 37° C. under 5% CO2 in air. Cells were plated at 5×10^4 cells per well into 24 well plates containing 1 ml of medium per well. After allowing the cells to attach overnight, media in the wells were replaced with fresh 1 ml medium. Human fetal osteoblasts (hFOB) cells and hFOB cells overexpressing estrogen receptor-alpha (hFOB-ERα) and estrogen receptor-beta (hFOB-ERβ) were grown in DMEM/F12 medium containing FBS, penicillin, streptomycin and Geneticin (300 μg/mL). The laboratory of Dr. B. L. Riggs at Mayo Clinic provided primary human osteoblast (HOB) cells. HOB cells were basically established from cancellous bone obtained as waste from orthopedic procedures and cultured as explants to generate the osteoblast-like monolayers as described by Borke et al., J. Clin. Endocrinol. Metab., 1988, 67:1299-1304. Human FOB cells and hFOB cells stably transfected with estrogen receptors (ERs) were maintained at 34° C., while all other cells were incubated at 37° C. under 5% CO2 in air.
(§2) Estrogen metabolites were diluted 1000 fold to give the final required concentrations in each well, and maintained for 72 hrs. The metabolites 2ME, 2OHE, and E2 were purchased from Sigma Chemical Company (St. Louis, Mo.). Stock solutions for each metabolite were made in 95% ethanol. Cell growth was measured by taking the viable cell count. At the end of metabolite treatment, cells were harvested, stained with trypan blue, and counted under a light microscope.

[4] = test system: ROS 17/2.8 rat osteosarcoma cells; assay: Cell survival, viable cell count with trypan blue; type: cell-based; conditions: 2 μM, 72 h
Method: as §1, §2

[5] = test system: TE85 human osteosarcoma cells; assay: Cell survival, viable cell count with trypan blue; type: cell-based; conditions: 2 μM, 72 h
Method: as §1, §2

[6] = test system: primary human osteoblast (HOB) cells; assay: Cell survival, viable cell count with trypan blue; type: cell-based
Method: as §1, §2

MG63 osteosarcoma cells = assay: In situ apoptosis by TUNEL assay; type: cell-based, human; conditions: 10 μM, 48 h
Method: The effect of 2ME on in situ apoptosis was examined at the single cell level, based on labeling of DNA strand breaks using the TUNEL (terminal deoxynucleotidyl transferase-mediated dUTP nick end labeling) assay per manufacturer's protocol (Boehringer Mannheim, Indianapolis, Ind.). In this method, the ends of broken DNA strands were labeled with fluorescein-dUTP, and apoptotic cells in adherent cultures were detected by fluorescence microscopy. In brief, TUNEL assay was performed on coverslips of adherent cells contained in individual wells of a 24-well culture dish. Cells were washed once with phosphate buffered saline (PBS) and allowed to air dry before being fixed in 4% phosphate-buffered paraformaldehyde pH 7.4 (Sigma, St. Louis, Mo.) for 1 h at room temperature. Following a PBS rinse, endogenous peroxidase was blocked by incubating cells for 1 h at room temperature with 0.3% hydrogen peroxide in methanol (Sigmna). The latter was performed for the option of converting fluorescein-labeled cells to peroxidase-labeled cells and DAB chromogenic detection. Subsequent to a PBS rinse, cells were permeabilized on ice with incubation in 0.1% Triton X-100 in 0.1% sodium citrate for 2 min. Coverslips were rinsed twice in PBS before the addition of TUNEL reaction mixture (100 μl). […] Coverslips were rinsed 3 times with PBS before visualization by fluorescence microscopy. […]

## COc1cc2c(cc1O)CC[C@@H]1[C@@H]2CC[C@]2(C)[C@@H](O)CC[C@@H]12 [2ME, 2-methoxyestradiol]
Female Fisher 344 rats [1]
  BFR/BS: 0.35 ± 0.03 %/day
  BV/TV: 17.7 ± 1.9%
  Mineral Apposition Rate: 172 ± 0.05 μm/day
  Tb.Sp: 297 ± 46 μm
  Tb.Th: 57 ± 2 μm
Female Fisher 344 rats [2]; mean ± SE, control 42 ± 5
  Proliferative zone thickness: 11 ± 3 μm
Female Fisher 344 rats [2]; mean ± SE, control 46 ± 6
  Hypertrophic zone thickness: 6 ± 2 μm
Female Fisher 344 rats [2]; mean ± SE, control 153 ± 14
  Growth plate thickness: 70±6 μm
Female Fisher 344 rats [2]; proximal tibia, 100 mg/kg/day
  effect on longitudinal bone growth (in words): decreased; also recorded: highly significant decreases
Female Fisher 344 rats [2]; proximal tibia, control 55±2
  longitudinal bone growth rate: 20±2 μm/day
[3]
  cell numbers reduced to: 15%
[4]
  cell numbers reduced to: 19%
[5]
  cell survival rate: 9%
[6]
  growth of normal osteoblasts (in words): not affected
[6]; 2 μM, 72 h
  survival: 89%
MG63 osteosarcoma cells
  TUNEL staining: Positive staining

Source: patent publication US6730665B1, “Treatment of bone cancer” (Mayo Foundation for Medical Education and Research, priority 1999, dated 2004)
